The text below walks through data of patent US5972379A, “Liposome composition and method for administering a quinolone” (Sequus Pharmaceuticals, Inc., priority 1998, dated 1999).

Values after ≈ are worked out from the molar mass of the structure shown. Where two headings read alike, the source gives them in different places. Where only a bound is given, the exact number is not on record here.

The conditions of series [1]: cited from earlier work.
Series [2] relates to S. pyrogenes. Nature of the series: Minimum inhibitory concentration, broth microdilution (NCCLS M7-A). In kind it is cell-based. The conditions noted are these: read-out: Minimum Inhibitory Concentration. As to the method:
(§1) The minimum inhibitory concentration of the drugs against the bacterial strains S. pyrogenes, E. faecalis, S. aureus, E. coli and P. aeruginosa were determined.

Series [3] concerns P. aeruginosa. The series is described as above. Type of series: cell-based. The settings on record: Pseudomonas aeruginosa, read-out: Minimum Inhibitory Concentration. As to the method: as §1
The subject of series [4] is E. faecalis. The description is as above. Type of series: cell-based. The conditions noted are these: Enterococcus faecalis, read-out: Minimum Inhibitory Concentration. As to the method: as §1
Series [5] in a line: Remote drug loading into PEG-coated liposomes. In kind it is physicochemical. The conditions noted are these: for % Drug Loading / Drug Conc. at Lipid Conc. of 36 mg/ml / Internal Liposome Drug Conc.: Drug:Lipid Ratio (mg/ml/mM) 2.5:50 (lysine-cipro), 5:50 (glycine-cipro). As to the method:
The chloroform was removed using a flash evaporator under reduced pressure until dryness. To the thin lipid film on the surface of the flask was added 15 ml of a solution of 250 mM ammonium sulfate, pH 5.5 and the lipids were dispersed in the solution by vigorous shaking for approximately 30 minutes at 60° C. The multilamellar vesicles obtained were extruded 6 times through a 0.4 μm pore-size Nucleopore polycarbonate filter, 6 times through a 0.1 μm polycarbonate filter and 3 times through a 0.05 μm polycarbonate filter using a stainless steel extrusion cell under a pressure of 200-400 psig. The extrusion process was carried out at 60° C. […] The liposomes were then dialyzed overnight against 4 liters 10% sucrose to remove external ammonium sulfate at 4° C.
The mixtures were incubated at 60° C. for 30 minutes. After incubation, the mixtures were immediately cooled in an ice bath. Aliquot samples were taken and the percent of drug loading was determined by using a Sephadex G-50 column (1.0×19 cm).

Series [6] deals with S. aureus. Nature of the series: Minimum inhibitory concentration, broth microdilution (NCCLS M7-A). In kind it is cell-based. The conditions noted are these: Staphylococcus aureus, inoculum 5×10^5 CFU/ml. As to the method:
(§2) As described above, glycinyl-ciprofloxacin was prepared as set forth in Example 2A-2B and tested for antimicrobial activity in vitro, as described in Example 2C. The minimum inhibitory concentration of the drugs against the bacterial strains S. pyrogenes, E. faecalis, S. aureus, E. coli and P. aeruginosa were determined.
(§3) Minimum inhibitory concentrations were determined by a broth microdilution technique following the National Committee for Clinical Laboratory Standards guidelines (NCCLS document M7-A, National Committee for Laboratory Standards, Villanova, Pa., 1994 Approved Standard for "Methods for dilution antimicrobial susceptibility tests for bacteria that grow aerobically") with a starting inoculum of 5×10^5 CFU/ml.

Series [7] has as its system E. coli. The series is described as above. Type of series: cell-based. The conditions noted are these: Escherichia coli, inoculum 5×10^5 CFU/ml. As to the method: as §2, §3
Series [8] concerns S. pyrogenes, E. faecalis, S. aureus, E. coli and P. aeruginosa. Nature of the series: Antimicrobial activity of conjugate versus ciprofloxacin (MIC, summary in words). Type of series: cell-based. The settings on record: compared with ciprofloxacin, MICs of Table 1. As to the method: as §1
Setting [9] is: amino group (NH3) of amino acid, Lehninger.
[10] abbreviates: amino acid used to modify ciprofloxacin.

Regarding `NCC(=O)O` [glycine], the pKa in series [1] (setting [9]) is on record as 9.6.
Consider `NCCCC[C@H](N)C(=O)O` [lysine], for which the pKa in series [1] (setting [9]) is recorded as 8.95.
`N=C(N)NCCC[C@H](N)C(=O)O` [arginine]: the pKa in series [1] (setting [9]) was 9.04.
Consider `O=C(O)c1cn(C2CC2)c2cc(N3CCNCC3)c(F)cc2c1=O` [ciprofloxacin, 1-cyclopropyl-6-fluoro-1,4-dihydro-4-oxo-7-(1-piperazinyl)-3-quinoline carboxylic acid], for which the MIC in series [2] was below 0.5 µg/mL; in series [3] it was below 0.5 µg/mL; in series [4], 1 µg/mL (≈ 3.02 µM); in series [6], 1 µg/mL (≈ 3.02 µM). In addition, the “percent of drug loading” value is 49% in series [5] (lipid/drug ratio 2), 75% in series [5] (lipid/drug ratio 4), 90% in series [5] (lipid/drug ratio 8) and 91% in series [5] (lipid/drug ratio 16). Moreover, the ciprofloxacin loading in series [5] (lipid/drug ratio 8, as stated in leakage test) was 75%.
Regarding `NCCCC[C@H](N)C(=O)N1CCN(c2cc3c(cc2F)c(=O)c(C(=O)O)cn3C2CC2)CC1` [lysinyl-ciprofloxacin], in series [5], the “% Drug Loading” value is recorded as 73%, the “Drug Conc. at Lipid Conc. of 36 mg/ml” value is given as 1.825 and the “Internal Liposome Drug Conc.” value was 13.1 mg/mL.
On to α-aminocapric acid, for which the pKa in series [1] (setting [10]) is 9.6.
Take ε-aminocapric acid: in series [1] (setting [10]), the pKa was 10.5.
With `NCC(=O)N1CCN(c2cc3c(cc2F)c(=O)c(C(=O)O)cn3C2CC2)CC1` [glycinyl-ciprofloxacin], the MIC in series [2] (S. pyrogenes, inoculum 5×10^5 CFU/ml) was 4 µg/mL (≈ 10.3 µM); in series [3] (P. aeruginosa, inoculum 5×10^5 CFU/ml) it was above 512 µg/mL; in series [4] (E. faecalis, inoculum 5×10^5 CFU/ml), 32 µg/mL (≈ 82.4 µM); in series [6], 32 µg/mL (≈ 82.4 µM); in series [7], 8 µg/mL (≈ 20.6 µM). In addition, the “% Drug Loading” value in series [5] is given as 75%. Moreover, the “Drug Conc. at Lipid Conc. of 36 mg/ml” value in series [5] was determined as 5. Also, in series [5], the “Internal Liposome Drug Conc.” value is 37.5 mg/mL. Also, in series [8], the “potency relative to ciprofloxacin” value is listed as “some loss of potency”.
For the molecule `C[C@H](N)C(=O)O` [alanine], the pKa in series [1] (setting [9]) is listed as 9.7.
